Results from patent publication US9981950B2, “Triazoles as NR2B receptor inhibitors” (Janssen Pharmaceuticals, Inc., priority 2014, dated 2018).

What was measured:
[1] = target: T1, rat NR1/NR2B receptor (Rattus norvegicus (Rat), UniProt P35439+Q00960); test: RRNR2BB: inhibition of specific binding to the rat NR1/NR2B receptor; conditions: [3H]-Ifenprodil binding, rat brain membranes, Hill-plot 2-parameter-model
Outline: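 Washed membranes from male Wistar rat forebrain (whole brain minus cerebellum) in 5 mM Tris/1 mM EDTA pH 7.4 used in ifenprodil-site binding, 60 min at 4° C. Nonspecific binding defined with […] CP101.606; bound separated by filtration on PEI-soaked filters. IC50 from Hill plot, 2-parameter model.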

[2] = target: T1, rat NR1/NR2B receptor; test: NR2B binding assay: inhibition of specific [3H]-Ifenprodil binding to the rat NR1/NR2B receptor; conditions: rat brain membranes, Hill-plot 2-parameter-model
Outline: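 Binding ran 60 min at 4 °C on washed membranes from male Wistar rat brain without cerebellum, in 5 mM Tris/1 mM EDTA, pH 7.4, and was ended by filtration through polyethylene-imine-presoaked filters. […] CP101.606 defined nonspecific binding.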

[3] = target: hERG-receptor (Homo sapiens (Human), UniProt Q12809); test: HERGBD: inhibition of specific 3H-Dofetilide binding to the hERG-receptor; conditions: HEK cell membranes with human ERG, Hill-plot 2-parameter-model
Outline: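 Membranes from HEK cells stably expressing human ERG incubated 90 min at RT with 1.5 nmol/l 3H-dofetilide in 20 mM HEPES/0.1 mM KCl pH 7.2, inhibitor in 1% DMSO. Nonspecific binding with […] dofetilide; bound ligand separated by filtration and scintillation counted.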

Sequence of hERG-receptor (Q12809 whole entry): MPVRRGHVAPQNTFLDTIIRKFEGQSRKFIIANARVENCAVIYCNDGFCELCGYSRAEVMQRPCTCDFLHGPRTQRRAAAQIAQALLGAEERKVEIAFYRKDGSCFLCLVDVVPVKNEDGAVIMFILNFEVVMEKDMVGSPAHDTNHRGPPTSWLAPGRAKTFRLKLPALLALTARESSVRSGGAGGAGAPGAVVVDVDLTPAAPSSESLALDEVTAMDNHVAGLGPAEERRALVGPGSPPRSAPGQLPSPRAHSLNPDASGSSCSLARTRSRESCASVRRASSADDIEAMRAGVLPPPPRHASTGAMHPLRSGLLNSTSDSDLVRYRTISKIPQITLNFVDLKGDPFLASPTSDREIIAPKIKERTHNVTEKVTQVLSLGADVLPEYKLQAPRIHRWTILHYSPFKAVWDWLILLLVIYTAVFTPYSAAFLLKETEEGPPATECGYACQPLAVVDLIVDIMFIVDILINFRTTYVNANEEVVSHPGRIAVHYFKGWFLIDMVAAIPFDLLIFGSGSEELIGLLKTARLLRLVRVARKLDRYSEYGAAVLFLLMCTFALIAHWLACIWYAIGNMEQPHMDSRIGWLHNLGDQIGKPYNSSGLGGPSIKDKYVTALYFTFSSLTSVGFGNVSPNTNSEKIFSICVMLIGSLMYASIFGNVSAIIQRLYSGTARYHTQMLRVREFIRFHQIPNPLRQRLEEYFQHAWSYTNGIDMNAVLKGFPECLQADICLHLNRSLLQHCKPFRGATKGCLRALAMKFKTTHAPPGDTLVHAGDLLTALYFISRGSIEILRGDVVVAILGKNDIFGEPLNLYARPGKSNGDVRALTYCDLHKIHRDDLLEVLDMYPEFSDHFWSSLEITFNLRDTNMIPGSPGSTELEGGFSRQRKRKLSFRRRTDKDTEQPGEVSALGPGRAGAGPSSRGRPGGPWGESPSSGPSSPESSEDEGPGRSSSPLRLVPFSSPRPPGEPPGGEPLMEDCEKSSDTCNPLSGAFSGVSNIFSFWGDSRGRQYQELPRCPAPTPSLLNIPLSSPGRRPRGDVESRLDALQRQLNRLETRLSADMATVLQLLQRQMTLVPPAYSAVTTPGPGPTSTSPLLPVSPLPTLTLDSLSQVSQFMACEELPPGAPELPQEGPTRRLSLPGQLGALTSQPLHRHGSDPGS
T1 sequence (Q00960 27-1482, other chains not shown): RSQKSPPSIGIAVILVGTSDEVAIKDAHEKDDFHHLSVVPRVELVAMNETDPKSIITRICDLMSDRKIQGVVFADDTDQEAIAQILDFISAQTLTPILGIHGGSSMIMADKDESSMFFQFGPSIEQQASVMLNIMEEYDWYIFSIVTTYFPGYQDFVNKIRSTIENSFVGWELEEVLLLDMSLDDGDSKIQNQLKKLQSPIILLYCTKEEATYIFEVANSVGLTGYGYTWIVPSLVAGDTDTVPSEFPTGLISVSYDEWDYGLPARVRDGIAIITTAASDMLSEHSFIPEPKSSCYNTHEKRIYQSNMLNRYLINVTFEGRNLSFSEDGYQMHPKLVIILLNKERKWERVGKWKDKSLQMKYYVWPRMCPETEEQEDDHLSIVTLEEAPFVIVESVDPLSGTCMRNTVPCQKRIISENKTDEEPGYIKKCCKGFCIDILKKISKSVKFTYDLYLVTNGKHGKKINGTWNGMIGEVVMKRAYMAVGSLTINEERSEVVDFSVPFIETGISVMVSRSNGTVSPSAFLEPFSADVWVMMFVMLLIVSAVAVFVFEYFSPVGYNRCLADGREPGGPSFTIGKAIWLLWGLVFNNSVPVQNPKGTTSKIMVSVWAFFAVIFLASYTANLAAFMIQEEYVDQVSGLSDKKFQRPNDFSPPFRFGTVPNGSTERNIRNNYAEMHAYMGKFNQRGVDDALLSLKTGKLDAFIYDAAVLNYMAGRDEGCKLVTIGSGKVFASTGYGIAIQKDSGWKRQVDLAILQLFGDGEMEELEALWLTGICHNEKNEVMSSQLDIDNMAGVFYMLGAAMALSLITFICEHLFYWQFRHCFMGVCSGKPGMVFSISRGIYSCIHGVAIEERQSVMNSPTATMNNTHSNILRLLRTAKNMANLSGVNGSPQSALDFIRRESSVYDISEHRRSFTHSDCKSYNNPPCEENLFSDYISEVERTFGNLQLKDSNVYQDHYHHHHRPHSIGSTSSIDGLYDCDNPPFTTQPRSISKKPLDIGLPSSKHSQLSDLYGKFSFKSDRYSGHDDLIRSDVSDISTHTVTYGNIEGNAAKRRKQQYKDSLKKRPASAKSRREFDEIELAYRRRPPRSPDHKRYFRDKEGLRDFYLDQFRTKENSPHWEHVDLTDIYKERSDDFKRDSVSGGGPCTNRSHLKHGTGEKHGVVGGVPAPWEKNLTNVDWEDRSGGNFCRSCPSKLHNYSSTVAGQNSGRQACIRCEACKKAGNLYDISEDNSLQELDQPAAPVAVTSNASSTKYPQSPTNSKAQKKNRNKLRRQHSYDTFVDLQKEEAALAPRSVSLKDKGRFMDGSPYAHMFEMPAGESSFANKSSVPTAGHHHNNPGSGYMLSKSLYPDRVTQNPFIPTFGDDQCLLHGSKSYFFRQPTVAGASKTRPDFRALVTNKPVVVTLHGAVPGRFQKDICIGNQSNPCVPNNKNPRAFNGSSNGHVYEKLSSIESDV

SMILES | IC50 [1] | IC50 [2] | IC50 [3]
CC(C)c1nccn1Cc1cn(-c2ccc(Cl)cc2)nn1 [Example 23, 1-(4-Chloro-phenyl)-4-(2-isopropyl-imidazol-1-ylmethyl)-1H-[1,2,3]triazole] | 77.4 nM | 77.4 nM | 7.94 µM
Cc1nccn1Cc1cn(-c2ccc(F)c(C(F)F)c2)nn1 [Example 81, 1-(3-Difluoromethyl-4-fluoro-1-phenyl)-4-(2-methyl-imidazol-1-ylmethyl)-1H-[1,2,3]triazole] | 3.83 nM | 3.83 nM | 14.3 µM
Fc1ccc(-n2cc(Cn3ccnc3C3CC3)nn2)cc1C(F)F [Example 82, 4-(2-Cyclopropyl-imidazol-1-ylmethyl)-1-(3-difluoromethyl-4-fluoro-phenyl)-1H-[1,2,3]triazole] | 16.2 nM | 16.2 nM | 15.7 µM
CC(C)c1nccn1Cc1cn(-c2ccc(F)c(C(F)F)c2)nn1 [Example 84, 1-(3-Difluoromethyl-4-fluoro-phenyl)-4-(2-isopropyl-imidazol-1-ylmethyl)-1H-[1,2,3]triazole] | 11 nM | 11 nM | 25.1 µM
OCCc1nccn1Cc1cn(-c2ccc(F)c(OC(F)F)c2)nn1 [Example 101, 1-(3-Difluoromethoxy-4-fluoro-phenyl)-4-[2-(2-hydroxy-ethyl)-imidazol-1-ylmethyl]-1H-[1,2,3]triazole] | 4.26 nM | 4.26 nM | 36.7 µM
Cn1nccc1Cc1cn(-c2ccc(F)c(Cl)c2)nn1 [Example 109, 1-(3-Chloro-4-fluoro-phenyl)-4-(2-methyl-2H-pyrazol-3-ylmethyl)-1H-[1,2,3]triazole] | 4320 nM | 4320 nM | > 100 µM

Stronger by IC50 [1], values ahead:

IC50 [1] | IC50 [2] | SMILES | IC50 [3]
1.2 nM | 1.2 nM | Cc1nccn1Cc1cn(-c2ccc(Cl)c(OC(F)F)c2)nn1 [Example 93, 1-(4-Chloro-3-difluoromethoxy-phenyl)-4-(2-methyl-imidazol-1-ylmethyl)-1H-[1,2,3]triazole] | 9.6 µM
0.65 nM | 0.65 nM | Nc1nccn1Cc1cn(-c2ccc(Cl)c(C(F)F)c2)nn1 [Example 113A, 4-(2-amino-imidazol-1-ylmethyl)-1-(4-chloro-3-difluoromethyl-phenyl)-1H-[1,2,3]triazole] | 3.09 µM
0.51 nM | 0.51 nM | CC(F)(F)c1cc(-n2cc(Cn3ccnc3N)nn2)ccc1F [Example 114] | 4.31 µM
0.48 nM | 0.48 nM | Nc1nccn1Cc1cn(-c2ccc(F)c(C(F)F)c2)nn1 [Example 113B, 4-(2-amino-imidazol-1-ylmethyl)-1-(4-fluoro-3-difluoromethyl-phenyl)-1H-[1,2,3]triazole] | 11 µM
